The record followed here is US20090156582A1, “Pyrazole Compound” (priority 2005, published 2009).

Structures are written as SMILES. A value given as a limit tells only on which side of the number the result lay.

The target in one test is T1, recombinant GSK3β enzyme (human GSK3β) (Homo sapiens, UniProt P49841).
T1 construct: FLAG (N); made in house; host or cells: Sf-21 insect cells, recombinant baculovirus (pFASTBAC1 / BAC-TO-BAC)
T1 sequence (P49841 whole entry): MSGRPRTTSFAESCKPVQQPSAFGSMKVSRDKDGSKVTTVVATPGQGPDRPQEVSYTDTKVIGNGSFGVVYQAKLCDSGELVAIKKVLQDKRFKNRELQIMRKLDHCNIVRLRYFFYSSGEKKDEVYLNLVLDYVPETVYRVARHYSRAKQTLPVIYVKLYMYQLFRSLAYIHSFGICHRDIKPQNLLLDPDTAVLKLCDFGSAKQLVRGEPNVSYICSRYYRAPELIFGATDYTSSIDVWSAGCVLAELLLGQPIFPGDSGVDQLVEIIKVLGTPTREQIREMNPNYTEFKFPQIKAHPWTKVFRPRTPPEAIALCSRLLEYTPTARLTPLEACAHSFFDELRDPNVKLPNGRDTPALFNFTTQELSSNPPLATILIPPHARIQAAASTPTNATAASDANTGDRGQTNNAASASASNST
The test is described as follows: Measurement of GSK3β inhibitory activity. The format is biochemical. Particulars: glycogen synthase peptide substrate, Kinase Glo luminescence, read-out: IC50 (concentration of test compound needed for 50% inhibition of luminescent intensity), GSK3β inhibitory activity. In a few lines: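 FLAG-purified human GSK3β expressed in baculovirus-infected Sf-21 cells; reaction with 2.5 μM ATP (stock solution) at room temperature, 30 min. Residual ATP measured by Kinase-Glo luminescence; IC50 as concentration inhibiting 50% of luminescent intensity.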
Background: Kinase-Glo measures the ATP left after a reaction by luminescence.
Take `N#CCCNC(=O)c1n[nH]cc1NC(=O)c1ccco1` [Example 412, N-(2-cyanoethyl)-4-(2-furoylamino)-1H-pyrazole-3-carboxamide]: the IC50 is less than 100 nM.

With `Cc1cccc(C(=O)Nc2c[nH]nc2C(=O)NCCC#N)c1` [Example 413, N-(2-cyanoethyl)-4-(3-methylbenzoylamino)-1H-pyrazole-3-carboxamide], the IC50 was less than 100 nM.

Consider `N#CCCNC(=O)c1n[nH]cc1NC(=O)c1ccccc1` [Example 420, 4-(benzoylamino)-N-(2-cyanoethyl)-1H-pyrazole-3-carboxamide], for which the IC50 is less than 100 nM.

As to `Cc1cccc(C(=O)Nc2c[nH]nc2C(=O)NCCOC(C)C)n1` [Example 426, N-(3-(((2-isopropoxyethyl)amino)carbonyl)-1H-pyrazol-4-yl)-6-methylpyridine-2-carboxamide], the IC50 was less than 100 nM.

For `N#CCCNC(=O)c1n[nH]cc1NC(=O)c1cccs1` [Example 416, N-(2-cyanoethyl)-4-(2-thienylcarbonylamino)-1H-pyrazole-3-carboxamide], the IC50 is less than 100 nM.

For the compound `COc1ccc(C(=O)Nc2c[nH]nc2C(=O)NCc2ccccc2)cc1` [Example 112, N-benzyl-4-[(4-methoxybenzoyl)amino]-1H-pyrazole-3-carboxamide], the IC50 was less than 100 nM.

Regarding `CC(C)(C)C(=O)Nc1c[nH]nc1C(=O)NCCC#N` [Example 415, N-(2-cyanoethyl)-4-(2,2-dimethylpropanoylamino)-1H-pyrazole-3-carboxamide], the IC50 is less than 100 nM.

`O=C(Nc1c[nH]nc1C(=O)Nc1ccccc1)c1ccccn1` [Example 341, N-(3-(anilinocarbonyl)-1H-pyrazol-4-yl)pyridine-2-carboxamide]: the IC50 was less than 100 nM.

In the case of `CC(C)NC(=O)c1n[nH]cc1NC(=O)COc1ccccc1` [compound 001, N-isopropyl-4-((phenoxyacetyl)amino)-1H-pyrazole-3-carboxamide], the IC50 was 267 nM.

For `O=C(Nc1c[nH]nc1C(=O)NCCc1ccccc1)c1ccc(C(F)(F)F)cc1` [Example 132, N-(2-phenylethyl)-4-{[4-(trifluoromethyl)ben-zoyl]-amino}-1H-pyrazole-3-carboxamide], the IC50 amounted to 101 nM.

For the compound `CC(=O)Nc1c[nH]nc1C(=O)NC1CCCC1` [compound 059], the IC50 is less than 100 nM.

On to `O=C(/C=C/c1ccccc1)Nc1c[nH]nc1C(=O)NCc1ccccc1` [Example 105, N-benzyl-4-{[(2E)-3-phenylprop-2-enoyl]amino}-1H-pyrazole-3-carboxamide], for which the IC50 turned out to be 273 nM.

`O=C(CCc1ccccc1)Nc1c[nH]nc1C(=O)NCc1ccccc1` [Example 106, N-benyzl-4-[(3-phenylpropanoyl)amino]-1H-pyrazole-3-carboxamide]: the IC50 was 242 nM.

`CC(=O)Nc1cccc(C(=O)Nc2c[nH]nc2C(=O)NCC(F)(F)F)c1` [Example 375, 4-((3-(acetylamino)benzoyl)amino)-N-(2,2,2-trifluoroethyl)-1H-pyrazole-3-carboxamide]: the IC50 was less than 100 nM.

On to `Cc1cccc(C(=O)Nc2c[nH]nc2C(=O)NCCC#N)n1` [Example 387, N-(3-(((2-cyanoethyl)amino)carbonyl)-1H-pyrazol-4-yl)-6-methylpyridine-2-carboxamide], for which the IC50 is less than 100 nM.

On to `O=C(NC1CCCC1)c1n[nH]cc1NC(=O)C1CCCC1` [Example 367, N-cyclopentyl-4-(cyclopentanecarbonylamino)-1H-pyrazole-3-carboxamide], for which the IC50 is less than 100 nM.

For `CCOCC(=O)Nc1c[nH]nc1C(=O)NCCc1ccccc1` [Example 125, 4-[(ethoxyacetyl)amino]-N-(2-phenylethyl)-1H-pyrazole-3-carboxamide], the IC50 was less than 100 nM.

As to `O=C(Nc1c[nH]nc1C(=O)NCCc1ccccc1)c1ccc(F)cc1F` [Example 134, 4-[(2,4-difluorobenzoyl)amino]-N-(2-phenylethyl)-1H-pyrazole-3-carboxamide], the IC50 is less than 100 nM.

Consider `O=C(Nc1c[nH]nc1C(=O)NC1CCCC1)c1ccccc1` [compound 070], for which the IC50 is less than 100 nM.

As for `O=C(NC1CCCC1)c1n[nH]cc1NC(=O)C1CCCCC1` [compound 063], the IC50 is less than 100 nM.

With `CC(=O)Nc1cccc(C(=O)Nc2c[nH]nc2C(=O)NCCOc2ccccc2)c1` [Example 369, 4-((3-(acetylamino)benzoyl)amino)-N-(2-phenoxyethyl)-1H-pyrazole-3-carboxamide], the IC50 was less than 100 nM.

As for `O=C(Nc1c[nH]nc1C(=O)NCC(F)(F)F)c1ccccn1` [Example 360, N-(3-(((2,2,2-trifluoroethyl)amino)carbonyl)-1H-pyrazol-4-yl)pyridine-2-carboxamide], the IC50 was less than 100 nM.

As for `CC(C)NC(=O)c1n[nH]cc1NS(=O)(=O)C[C@]12CCC(CC1=O)C2(C)C` [compound 197], the IC50 was 109 nM.

In the case of `O=C(Nc1c[nH]nc1C(=O)NC1CCCC1)c1ccc(OC(F)(F)F)cc1` [compound 076], the IC50 is less than 100 nM.

Consider `O=C(NCc1ccccc1)c1n[nH]cc1NC(=O)C1CCCCC1` [Example 102, N-benzyl-4-[(cyclohexylcarbonyl)amino]-1H-pyrazole-3-carboxamide], for which the IC50 is less than 100 nM.

Regarding `CC(C)NC(=O)c1n[nH]cc1NC(=O)c1ccc(Oc2ccccc2)cc1` [compound 032], the IC50 was less than 100 nM.

In the case of `CC(=O)Nc1cccc(C(=O)Nc2c[nH]nc2C(=O)NCCC#N)c1` [Example 372, 4-((3-(acetylamino)benzoyl)amino)-N-(2-cyanoethyl)-1H-pyrazole-3-carboxamide], the IC50 is less than 100 nM.

With `O=C(Nc1c[nH]nc1C(=O)NCCO)c1ccccn1` [Example 401, N-(3-(((2-hydroxyethyl)amino)carbonyl)-1H-pyrazol-4-yl)pyridine-2-carboxamide], the IC50 was less than 100 nM.

As for `O=C(Nc1c[nH]nc1C(=O)NCCNc1ccccn1)c1ccccn1` [Example 397, N-(3-(((2-(pyridin-2-ylamino)ethyl)amino)carbonyl)-1H-pyrazol-4-yl)pyridine-2-carboxamide], the IC50 is less than 100 nM.

In the case of `CCOCC(=O)Nc1c[nH]nc1C(=O)Nc1ccccc1` [compound 085], the IC50 was less than 100 nM.

Consider `O=C(COc1ccccc1)Nc1c[nH]nc1C(=O)NC1CCCC1` [compound 062], for which the IC50 is less than 100 nM.

For `O=C(Cc1c[nH]c2ccccc12)Nc1c[nH]nc1C(=O)Nc1ccccc1` [compound 089], the IC50 was 379 nM.

Take `CNC(=O)c1n[nH]cc1NC(=O)C(c1ccccc1)c1ccccc1` [compound 003]: the IC50 is less than 100 nM.

For `CC(=O)Nc1cccc(C(=O)Nc2c[nH]nc2C(=O)NCCSc2ccccc2)c1` [Example 376, 4-((3-(acetylamino)benzoyl)amino)-N-(2-(phenylthio)ethyl)-1H-pyrazole-3-carboxamide], the IC50 is less than 100 nM.

`O=C(Nc1c[nH]nc1C(=O)Nc1ccccc1)c1cnccn1` [compound 098]: the IC50 was less than 100 nM.

Turning to `CC(=O)Nc1cccc(C(=O)Nc2c[nH]nc2C(=O)NCCN(C)C)c1` [Example 373, 4-((3-(acetylamino)benzoyl)amino)-N-(2-(dimethylamino)ethyl)-1H-pyrazole-3-carboxamide], the IC50 was less than 100 nM.

Another test concerns H4IIE-C3 cells. The test can be described thus: Measurement of sugar release suppressive action using cultured hepatocyte. As to conditions: Rattus norvegicus, H4IIEC3, 3 h, test compound 10 μM, Dexamethasone 500 nM and 8CPT-cAMP 0.1 mM, GSK3β inhibitor free group is 100%, read-out: sugar release suppressive activity (released glucose content, relative value). In kind it is cell-based. As to the method:
H4IIE-C3 cells (from rat liver) were seeded on 24 well or 96 well collagen coated plate (manufactured by Falcon), and cultured in Dulbecco's Modified Eagle Medium (DMEM: manufactured by GIBCO) containing 10% FBS, 25 mM Glucose until the cells became sub-confluent. Then, the cells were starvation treated with DMEM containing 0% FBS and 5.6 mM glucose. The medium was exchanged to DMEM containing test compound adjusted to 10 μM and sugar production stimulant (Dexamethasone (500 nM), 8CPT-cAMP (0.1 mM)), and the cells were pretreated for 5 hr. After washing with PBS, the cells were cultured in Phenol Red-free, Glucose-free DMEM containing the test compound and sugar production stimulant for 3 hr, and the glucose content released in the medium was measured. A glucose measurement kit (A-22189) manufactured by Molecular Probes was used for the glucose measurement. The sugar release suppressive activity is shown in a relative value when the released glucose content of a GSK3β inhibitor free group is 100%.
With `CC(C)(C)OCCCNC(=O)c1n[nH]cc1NC(=O)c1ccccn1` [Example 455, N-(3-(((3-tert-butoxypropyl)amino)carbonyl)-1H-pyrazol-4-yl)pyridine-2-carboxamide], the activity at 10 µM came out at 79%.

As to `N#CCCNC(=O)c1n[nH]cc1NC(=O)c1ccco1` [Example 412, N-(2-cyanoethyl)-4-(2-furoylamino)-1H-pyrazole-3-carboxamide], the activity at 10 µM worked out at 74%.

As for `Cc1cccc(C(=O)Nc2c[nH]nc2C(=O)NCCC#N)c1` [Example 413, N-(2-cyanoethyl)-4-(3-methylbenzoylamino)-1H-pyrazole-3-carboxamide], the activity at 10 µM is 64%.

With `N#CCCNC(=O)c1n[nH]cc1NC(=O)c1ccccc1` [Example 420, 4-(benzoylamino)-N-(2-cyanoethyl)-1H-pyrazole-3-carboxamide], the activity at 10 µM was found to be 62%.

Turning to `Cc1cccc(C(=O)Nc2c[nH]nc2C(=O)NCCCOC(C)C)n1` [Example 430, N-(3-(((3-isopropoxypropyl)amino)carbonyl)-1H-pyrazol-4-yl)-6-methylpyridine-2-carboxamide], the activity at 10 µM is 76%.

As to `Cc1cccc(C(=O)Nc2c[nH]nc2C(=O)NCCOC(C)C)n1` [Example 426, N-(3-(((2-isopropoxyethyl)amino)carbonyl)-1H-pyrazol-4-yl)-6-methylpyridine-2-carboxamide], the activity at 10 µM was determined as 55%.

Take `CC(C)(CO)CNC(=O)c1n[nH]cc1NC(=O)c1ccccn1` [Example 470, N-(3-(((3-hydroxy-2,2-dimethylpropyl)amino)carbonyl)-1H-pyrazol-4-yl)pyridine-2-carboxamide]: the activity at 10 µM turned out to be 75%.

With `N#CCCNC(=O)c1n[nH]cc1NC(=O)c1cccs1` [Example 416, N-(2-cyanoethyl)-4-(2-thienylcarbonylamino)-1H-pyrazole-3-carboxamide], the activity at 10 µM stood at 62%.

For the compound `Cc1ccc(C(=O)Nc2c[nH]nc2C(=O)NCC(F)(F)F)cn1` [Example 480, 6-methyl-N-(3-(((2,2,2-trifluoroethyl)amino)carbonyl)-1H-pyrazol-4-yl)pyridine-3-carboxamide], the activity at 10 µM turned out to be 69%.

Consider `Cc1cccc(C(=O)Nc2c[nH]nc2C(=O)NCCC#N)n1` [Example 387, N-(3-(((2-cyanoethyl)amino)carbonyl)-1H-pyrazol-4-yl)-6-methylpyridine-2-carboxamide], for which the activity at 10 µM is 69%.
